The nature of data set [1]: method code SF-AS, from DOI: 10.1016/s0021-9673(01)95502-5.

Turning to `O=C(O)CCCC(=O)c1ccc(-c2ccccc2)cc1`, the logD in data set [1] (pH 3.4) was found to be 3.35.
`CC(C)Oc1ccc(C(=O)CC(C)C(=O)O)cc1` (stereo not drawn) came in with a logD in data set [1] (pH 3.5) of 2.5.
`COc1ccc(C(=O)CCC(=O)O)cc1`: the logD in data set [1] (pH 3.4) turned out to be 1.38.
`COc1ccc(C(C)(O)C(=O)O)cc1` (stereo not drawn) had a logD in data set [1] (pH 3.5) of 0.81.
`CC(C)Cc1ccc(C(=O)CCC(=O)O)cc1` gave a logD in data set [1] (pH 3.5) of 3.2.
Same read-out and setting: for `CC(C)Cc1ccc(C(=O)CCCC(=O)O)cc1` the value was 3.39; for `CC(C)c1ccc(CC(=O)O)cc1`, 2.85.
In turn, `CC(CC(=O)O)CC(=O)c1ccc(-c2ccccc2)cc1` (stereo not drawn) came in with a logD in data set [1] (pH 3.4) of 3.82.
For `COc1ccc(C(C)(O)C(=O)O)cc1Cl` (stereo not drawn), in data set [1] (pH 3.5), the logD worked out at 1.26.
On the same count and under the same terms, for `CCc1ccc(CC(=O)O)cc1` the value was 2.43; for `CCC(O)(C(=O)O)c1ccc(-c2ccccc2)cc1` (stereo not drawn), 3.37.
`O=C(O)CCCC(=O)c1ccc(C2CCCCC2)cc1` came in with a logD in data set [1] (pH 3.5) of 3.95.
The molecule `COc1ccc(C(=O)CC(C)CC(=O)O)cc1Cl` (stereo not drawn) had a logD in data set [1] (pH 3.4) of 2.6.
As for `CC(C)c1ccc(C(=O)CCCC(=O)O)cc1`, the log distribution coefficient (logD) in data set [1] (pH 3.5) is 2.89.
Regarding `O=C(O)CCC(=O)c1ccccc1`, the pH-dependent lipophilicity (logD) in data set [1] (pH 3.4) amounted to 1.3.
Turning to `O=C(O)CCC(=O)c1ccc(C2CCCCC2)c(Cl)c1`, the logD in data set [1] (pH 3.5) turned out to be 4.36.
In turn, `CC(CC(=O)O)CC(=O)c1ccc(C2CCCCC2)cc1` (stereo not drawn) came in with a logD in data set [1] (pH 3.5) of 4.38.
Molecule `CC(CC(=O)c1ccc(C2CCCCC2)cc1)C(=O)O` (stereo not drawn) came in with a logD in data set [1] (pH 3.5) of 4.08.
For `CC(C)Oc1ccc(C(=O)CCC(=O)O)cc1Cl`, in data set [1] (pH 3.5), the logD stood at 2.78.
In data set [1] (pH 3.5), `CC(C)c1ccc(C(=O)CCC(=O)O)cc1` displayed a logD of 2.7.
With `CC(CC(=O)c1ccccc1)C(=O)O` (stereo not drawn), the log distribution coefficient (logD) in data set [1] (pH 3.4) amounted to 1.62.
With `CC(CC(=O)O)CC(=O)c1ccc(OC(C)C)c(Cl)c1` (stereo not drawn), the logD in data set [1] (pH 3.5) came out at 3.4.
Consider `COc1ccc(C(=O)CCC(=O)O)cc1Cl`, for which the logD in data set [1] (pH 3.5) turned out to be 1.98.
`COc1ccc(C(=O)CCCC(=O)O)cc1Cl` registered a logD in data set [1] (pH 3.4) of 2.17.
As to `CC(C)COc1ccc(C(=O)CC(C)C(=O)O)cc1Cl` (stereo not drawn), the logD in data set [1] (pH 3.5) came out at 3.6.
The molecule `CCCCCCOc1ccc(C(=O)CCC(=O)O)cc1` gave a logD in data set [1] (pH 3.5) of 3.88.
Take `CC(C)Oc1ccc(C(=O)CCC(=O)O)cc1`: the logD in data set [1] (pH 3.5) stood at 2.18.
As for `CC(CC(=O)c1ccc(-c2ccccc2)cc1)C(=O)O` (stereo not drawn), the logP is 3.13.
`O=C(O)CCC(=O)c1ccc(C2CCCCC2)cc1` returned a logD in data set [1] (pH 3.5) of 3.76.
With `CCC(O)(C(=O)O)c1ccc(CC(C)C)cc1` (stereo not drawn), in data set [1] (pH 3.4), the log distribution coefficient (logD) was 3.37.
For `CC(O)(C(=O)O)c1ccc(C2CCCCC2)cc1` (stereo not drawn), the logD in data set [1] (pH 3.5) amounted to 3.26.
For the molecule `O=C(O)CCC(=O)c1ccc(Br)cc1`, the pH-dependent lipophilicity (logD) in data set [1] (pH 3.5) was found to be 2.28.
In data set [1] (pH 3.5), `CC(C)(C)c1ccc(CC(=O)O)cc1` returned a logD of 3.13.

What is called logD is the decadic logarithm of the distribution of all forms, ionised or not, between an organic phase and buffer at a given pH. Read a low logD as a more hydrophilic compound. For orientation: logP means the decadic logarithm of the partition coefficient of the neutral form, usually between octanol and water. Low readings indicate lower lipophilicity, high ones higher lipophilicity.

These data come from the SangsterLogP compilation.
